According to ChEMBL document CHEMBL5233266, “β-Carboline as a Privileged Scaffold for Multitarget Strategies in Alzheimer's Disease Therapy” (J Med Chem, 2021):
“And” between values parts separate entries of the source, which are not always exact repeats. Identical values can stand only once.

What was measured:
Acetylcholinesterase = Acetylcholinesterase (Homo sapiens, UniProt P22303); experiment: Inhibition of AChE (unknown origin)
[1] = target: cGMP-specific 3',5'-cyclic phosphodiesterase (Homo sapiens, UniProt O76074); experiment: Inhibition of PDE5 (unknown origin)
Cholinesterase = Cholinesterase (Homo sapiens, UniProt P06276); experiment: Inhibition of BuChE (unknown origin)
Sequence of Cholinesterase (P06276 whole entry): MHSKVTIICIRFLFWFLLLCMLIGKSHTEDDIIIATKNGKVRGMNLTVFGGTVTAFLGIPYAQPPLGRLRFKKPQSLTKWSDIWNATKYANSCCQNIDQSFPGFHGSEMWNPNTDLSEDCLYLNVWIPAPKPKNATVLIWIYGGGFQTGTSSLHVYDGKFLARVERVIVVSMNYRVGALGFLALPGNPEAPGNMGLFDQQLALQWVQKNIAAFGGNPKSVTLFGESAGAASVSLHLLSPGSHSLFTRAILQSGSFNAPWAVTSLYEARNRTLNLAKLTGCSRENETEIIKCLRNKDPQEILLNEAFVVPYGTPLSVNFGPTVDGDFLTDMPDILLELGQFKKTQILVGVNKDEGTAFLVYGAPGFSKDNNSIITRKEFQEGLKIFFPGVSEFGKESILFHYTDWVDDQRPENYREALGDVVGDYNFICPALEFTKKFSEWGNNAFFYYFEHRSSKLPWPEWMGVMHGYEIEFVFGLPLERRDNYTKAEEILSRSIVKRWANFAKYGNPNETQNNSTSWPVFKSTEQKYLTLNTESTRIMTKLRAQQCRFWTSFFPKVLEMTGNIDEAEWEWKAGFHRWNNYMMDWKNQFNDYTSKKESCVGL

[2] = target: GABA-A receptor; anion channel; experiment: Displacement of [3H]flunitrazepam from GABAA (unknown origin ) receptor by radioligand binding assay; assay type: protein-complex assay, Homo sapiens
[3] = target: T1, Gamma-aminobutyric acid receptor subunit alpha-1 (Homo sapiens, UniProt P14867); experiment: Binding affinity to human recombinant GABAA alpha1 receptor assessed as inhibition constant incubated for 1 hrs by liquid scintillation counting analysis
T1 sequence (P14867 whole entry): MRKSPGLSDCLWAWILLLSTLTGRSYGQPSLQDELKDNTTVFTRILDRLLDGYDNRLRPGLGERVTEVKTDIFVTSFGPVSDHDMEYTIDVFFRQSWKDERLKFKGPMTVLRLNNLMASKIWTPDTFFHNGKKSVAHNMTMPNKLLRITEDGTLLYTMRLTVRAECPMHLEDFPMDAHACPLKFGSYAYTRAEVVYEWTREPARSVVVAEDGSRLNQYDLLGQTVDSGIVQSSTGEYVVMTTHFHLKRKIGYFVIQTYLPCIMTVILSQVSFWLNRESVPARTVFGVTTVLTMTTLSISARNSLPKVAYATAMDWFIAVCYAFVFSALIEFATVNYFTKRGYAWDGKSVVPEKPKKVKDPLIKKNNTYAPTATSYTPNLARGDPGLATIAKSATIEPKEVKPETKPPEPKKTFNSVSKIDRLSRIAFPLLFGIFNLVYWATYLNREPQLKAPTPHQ

[4] = target: T2, Gamma-aminobutyric acid receptor subunit alpha-2 (Homo sapiens, UniProt P47869); experiment: Binding affinity to human recombinant GABAA alpha2 receptor assessed as inhibition constant incubated for 1 hrs by liquid scintillation counting analysis
T2 sequence (P47869 whole entry): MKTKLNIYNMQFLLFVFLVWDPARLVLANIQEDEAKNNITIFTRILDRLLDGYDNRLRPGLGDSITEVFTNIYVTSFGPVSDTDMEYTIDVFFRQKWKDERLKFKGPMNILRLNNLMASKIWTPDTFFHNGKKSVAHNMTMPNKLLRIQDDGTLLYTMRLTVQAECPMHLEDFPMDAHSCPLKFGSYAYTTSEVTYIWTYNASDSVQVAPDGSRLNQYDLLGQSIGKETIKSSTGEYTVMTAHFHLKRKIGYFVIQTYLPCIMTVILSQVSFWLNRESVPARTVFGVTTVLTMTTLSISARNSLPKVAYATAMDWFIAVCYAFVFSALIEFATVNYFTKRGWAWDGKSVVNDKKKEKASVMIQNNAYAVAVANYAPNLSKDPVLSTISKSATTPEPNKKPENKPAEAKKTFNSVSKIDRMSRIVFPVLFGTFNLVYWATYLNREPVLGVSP

[5] = target: T3, Gamma-aminobutyric acid receptor subunit alpha-3 (Homo sapiens, UniProt P34903); experiment: Binding affinity to human recombinant GABAA alpha3 receptor assessed as inhibition constant incubated for 1 hrs by liquid scintillation counting analysis
T3 sequence (P34903 whole entry): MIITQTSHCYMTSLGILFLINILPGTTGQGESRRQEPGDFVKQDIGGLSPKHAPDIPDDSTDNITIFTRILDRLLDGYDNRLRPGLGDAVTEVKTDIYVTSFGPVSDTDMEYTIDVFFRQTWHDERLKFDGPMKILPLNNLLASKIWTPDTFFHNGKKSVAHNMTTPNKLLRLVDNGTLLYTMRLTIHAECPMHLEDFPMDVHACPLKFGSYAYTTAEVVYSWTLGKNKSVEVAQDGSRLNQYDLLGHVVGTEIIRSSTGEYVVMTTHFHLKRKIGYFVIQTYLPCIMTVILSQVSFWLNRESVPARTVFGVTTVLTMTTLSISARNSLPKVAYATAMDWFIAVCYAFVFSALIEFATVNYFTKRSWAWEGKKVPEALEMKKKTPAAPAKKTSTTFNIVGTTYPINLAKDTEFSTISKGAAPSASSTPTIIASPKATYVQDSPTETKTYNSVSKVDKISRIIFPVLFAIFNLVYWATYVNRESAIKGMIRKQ

[6] = target: T4, Gamma-aminobutyric acid receptor subunit alpha-5 (Homo sapiens, UniProt P31644); experiment: Binding affinity to human recombinant GABAA alpha5 receptor assessed as inhibition constant incubated for 1 hrs by liquid scintillation counting analysis
T4 sequence (P31644 whole entry): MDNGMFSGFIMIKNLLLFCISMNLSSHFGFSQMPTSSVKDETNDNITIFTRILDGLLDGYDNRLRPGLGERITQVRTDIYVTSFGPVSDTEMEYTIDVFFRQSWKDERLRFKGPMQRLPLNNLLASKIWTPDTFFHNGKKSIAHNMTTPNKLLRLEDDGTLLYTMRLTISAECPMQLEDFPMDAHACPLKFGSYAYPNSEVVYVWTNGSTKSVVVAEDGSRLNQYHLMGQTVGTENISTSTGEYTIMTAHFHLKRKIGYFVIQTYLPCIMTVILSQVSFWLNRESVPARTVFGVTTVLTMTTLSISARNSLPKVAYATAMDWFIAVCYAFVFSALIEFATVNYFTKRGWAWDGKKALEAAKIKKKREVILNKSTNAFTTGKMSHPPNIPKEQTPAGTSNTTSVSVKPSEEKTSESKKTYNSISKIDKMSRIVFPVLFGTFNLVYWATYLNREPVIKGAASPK

[7] = target: Gamma-aminobutyric acid receptor subunit alpha-6 (Homo sapiens, UniProt Q16445); experiment: Binding affinity to human recombinant GABAA alpha6 receptor assessed as inhibition constant incubated for 1 hrs by liquid scintillation counting analysis
Sequence of Gamma-aminobutyric acid receptor subunit alpha-6 (Q16445 whole entry): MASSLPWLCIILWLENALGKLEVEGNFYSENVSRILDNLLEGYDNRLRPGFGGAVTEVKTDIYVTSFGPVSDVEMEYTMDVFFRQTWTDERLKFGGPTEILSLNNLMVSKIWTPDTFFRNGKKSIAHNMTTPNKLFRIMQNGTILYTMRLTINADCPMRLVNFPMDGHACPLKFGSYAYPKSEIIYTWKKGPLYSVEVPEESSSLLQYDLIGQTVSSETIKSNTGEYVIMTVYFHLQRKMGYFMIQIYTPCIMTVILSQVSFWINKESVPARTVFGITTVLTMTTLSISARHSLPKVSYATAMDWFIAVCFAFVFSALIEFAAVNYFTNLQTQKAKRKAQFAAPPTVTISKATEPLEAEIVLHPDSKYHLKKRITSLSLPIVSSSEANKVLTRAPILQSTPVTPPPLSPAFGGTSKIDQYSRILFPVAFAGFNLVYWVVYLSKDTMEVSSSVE

Sequence of Acetylcholinesterase (P22303 whole entry): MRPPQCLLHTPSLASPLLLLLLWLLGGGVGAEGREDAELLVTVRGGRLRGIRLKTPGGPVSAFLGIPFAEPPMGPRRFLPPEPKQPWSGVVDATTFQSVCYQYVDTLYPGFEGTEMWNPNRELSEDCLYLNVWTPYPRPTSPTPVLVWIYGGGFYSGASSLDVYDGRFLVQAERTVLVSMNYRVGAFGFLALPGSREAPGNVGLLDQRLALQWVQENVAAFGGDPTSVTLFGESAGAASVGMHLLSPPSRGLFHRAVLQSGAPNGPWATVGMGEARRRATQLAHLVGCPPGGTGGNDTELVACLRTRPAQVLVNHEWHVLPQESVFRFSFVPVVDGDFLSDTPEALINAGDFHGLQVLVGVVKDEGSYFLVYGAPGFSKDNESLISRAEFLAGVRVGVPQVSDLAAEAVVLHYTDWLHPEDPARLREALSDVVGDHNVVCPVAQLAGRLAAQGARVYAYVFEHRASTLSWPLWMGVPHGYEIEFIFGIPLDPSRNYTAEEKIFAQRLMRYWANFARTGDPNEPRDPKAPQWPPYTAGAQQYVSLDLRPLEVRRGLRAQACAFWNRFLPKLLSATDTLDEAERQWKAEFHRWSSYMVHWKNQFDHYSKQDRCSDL

O=C1C2Cc3c([nH]c4ccccc34)[C@@H](c3ccc4c(c3)OCO4)N2C(=O)CN1CCC1CCN(Cc2ccccc2)CC1 (some centres not stated)
IC50 (Acetylcholinesterase): 36 nM
IC50 [1]: 150 nM

COc1ccc(-[n+]2ccc3c4ccccc4n(C)c3c2)cc1
IC50 (Acetylcholinesterase): 300 nM
IC50 (Cholinesterase): 32000 nM and 116000 nM

CCCCN1CC(=O)N2[C@H](c3ccc(Br)cc3)c3[nH]c4ccccc4c3C[C@H]2C1=O
IC50 [1]: 10 nM

COc1ccc([C@@H]2N[C@@H](C(=O)O)Cc3c2n(C)c2ccccc32)cc1OC
IC50 (Acetylcholinesterase): 2500 nM

COC(=O)c1cc2c(cn1)[nH]c1ccc(NCc3ccccc3)cc12
IC50 [2]: 4 nM
Ki [3]: 5 nM
Ki [4]: 30 nM
Ki [5]: 49 nM
Ki [6]: 480 nM
Ki [7]: > 10000 nM

S=C=Nc1cc2c(cn1)[nH]c1ccccc12
IC50 [2]: 3 nM
Ki [3]: 5 nM

O=C(NCCCCCCNc1c2c(nc3ccccc13)CCCC2)[C@@H]1Cc2c([nH]c3ccccc23)CN1
IC50 (Acetylcholinesterase): 22 nM
INH (Cholinesterase): 22 nM

O=C1[C@@H]2Cc3c([nH]c4ccccc34)[C@@H](c3ccc4c(c3)OCO4)N2C(=O)CN1CCC1CCN(Cc2ccccc2)CC1
IC50 (Acetylcholinesterase): 32 nM
IC50 [1]: 1500 nM

CCOC(=O)c1ncc2[nH]c3ccc(OCc4ccccc4)cc3c2c1COC
IC50 [2]: 0.5 nM
Ki [3]: 4 nM
Ki [4]: 4 nM
Ki [5]: 6 nM
Ki [6]: 5 nM
Ki [7]: > 1000 nM

O=c1c2cc(NS(=O)(=O)c3ccccc3OC(F)(F)F)ccc2cc2n1CCc1c-2[nH]c2ccccc12
IC50 (Cholinesterase): 3600 nM

CCCC(=O)c1cc2c(cn1)[nH]c1ccccc12
IC50 [2]: 3 nM
Ki [3]: 2 nM
Ki [4]: 16 nM
Ki [5]: 21 nM
Ki [6]: 1000 nM
Ki [7]: > 3000 nM

O=C1[C@H]2Cc3c([nH]c4ccccc34)[C@@H](c3ccc4c(c3)OCO4)N2C(=O)CN1[C@@H]1CCN(Cc2cccnc2)C1
IC50 [1]: 2 nM

CCOC(=O)c1ncc2[nH]c3ccccc3c2c1COC
IC50 [2]: 0.5 nM
Ki [3]: 0.6 nM
Ki [4]: 3 nM
Ki [5]: 5 nM
Ki [6]: 10 nM
Ki [7]: 1200 nM

CCCCN1CC2Cc3c([nH]c4ccccc34)C(c3ccc(OC)cc3)N2C1=O (configuration not stated)
IC50 [1]: 60 nM

Cn1c2ccccc2c2cc[n+](-c3ccc(Cl)cc3)cc21
IC50 (Acetylcholinesterase): 560 nM and 300 nM
IC50 (Cholinesterase): 32000 nM and 116000 nM

COc1ccc2c3c([nH]c2c1N)C(C)NCC3 (configuration not stated)
IC50 (Acetylcholinesterase): 2000 nM

CCN1C(=O)[C@@H]2Cc3c([nH]c4ccccc34)[C@@H](c3ccc(Br)cc3)N2C1=O
IC50 [1]: 40 nM

Cn1ccnc1CN1CC[C@@H](N2CC(=O)N3[C@H](c4ccc5c(c4)OCO5)c4[nH]c5ccccc5c4C[C@@H]3C2=O)C1
IC50 [1]: 0.8 nM

CCOC(=O)c1ncc2[nH]c3ccc(OC)cc3c2c1COC
IC50 [2]: 0.5 nM
Ki [3]: 0.1 nM
Ki [4]: 1 nM
Ki [5]: 2 nM
Ki [6]: 4 nM

COc1ccc(C2c3[nH]c4ccccc4c3CC3C(=O)N(C4CCCCC4)C(=O)N32)cc1 (configuration not stated)
IC50 [1]: 3 nM

CCOC(=O)c1nc(C)c2[nH]c3cc(OC)c(OC)cc3c2c1CC
Ki [3]: 6 nM
Ki [4]: 19 nM
Ki [5]: 4 nM
Ki [6]: 3 nM
Ki [7]: 75 nM

CC(C)(C)COC(=O)c1cc2c(cn1)[nH]c1ccccc12
IC50 [2]: 750 nM

CCN1C(=O)[C@@H]2Cc3c([nH]c4ccccc34)[C@@H](c3ccc(Cl)cc3)N2C1=O
IC50 [1]: 330 nM

COc1ccc2c(c1)[nH]c1c(C(C)=O)nccc12 [ARENARINE C]
IC50 (Acetylcholinesterase): 4000 nM
IC50 (Cholinesterase): 27000 nM

C#CCn1c2cc(OC)ccc2c2ccnc(C)c21
IC50 (Acetylcholinesterase): 1900 nM

O=C1C2Cc3c([nH]c4ccccc34)C(c3ccc4c(c3)OCO4)N2C(=O)CN1C1CCCCC1 (configuration not stated)
IC50 [1]: 3 nM

CCCCN1C(=O)[C@@H]2Cc3c([nH]c4ccccc34)[C@@H](c3ccc(Br)cc3)N2C1=O
IC50 [1]: 40 nM

CCOC(=O)c1ncc2[nH]c3cccc(OC(C)C)c3c2c1C
IC50 [2]: 0.4 nM

CCN1C(=O)C2Cc3c([nH]c4ccccc34)C(c3ccc(OC)cc3)N2C1=O (configuration not stated)
IC50 [1]: 3 nM

CC(C)N1CC(=O)N2C(Cc3c([nH]c4ccccc34)C2c2ccc3c(c2)OCO3)C1=O (configuration not stated)
IC50 [1]: 3 nM

CCCOc1ccc2[nH]c3cnc(C(=O)OCC)c(COC)c3c2c1
IC50 [2]: 0.5 nM
Ki [3]: 0.5 nM
Ki [4]: 1 nM
Ki [5]: 2 nM
Ki [6]: 2 nM
Ki [7]: 1300 nM

COc1ccc(N2CC(=O)N3[C@H](c4ccc5c(c4)OCO5)c4[nH]c5ccccc5c4C[C@@H]3C2=O)cc1
IC50 [1]: 16 nM

CCOC(=O)c1ncc2[nH]c3ccc(O)cc3c2c1COC
IC50 [2]: 0.5 nM
Ki [3]: 2 nM
Ki [4]: 5 nM
Ki [5]: 11 nM
Ki [6]: 19 nM
Ki [7]: 3000 nM

CCN1C(=O)[C@H]2Cc3c([nH]c4ccccc34)[C@@H](c3ccc(Br)s3)N2C1=O
IC50 [1]: 170 nM

O=C1[C@H]2Cc3c([nH]c4ccccc34)[C@@H](c3ccc4c(c3)OCO4)N2C(=O)CN1[C@@H]1CCN(Cc2ncc[nH]2)C1
IC50 [1]: 0.8 nM

CN1CCN(C(=O)c2ccc(-c3ccc(C(=O)N4CCc5c([nH]c6ccccc56)C4c4ccc5c(c4)OCO5)o3)cc2)CC1 (configuration not stated)
IC50 [1]: 8 nM

CCOC(=O)c1ncc2[nH]c3cccc(OCc4ccccc4)c3c2c1COC
IC50 [2]: 0.2 nM

COC(=O)c1cc2c(cn1)[nH]c1ccc(O)cc12
IC50 [2]: 4 nM

COc1ccc2c3ccnc(C)c3n(CC3CC(c4ccccc4)=NO3)c2c1 (configuration not stated)
IC50 (Acetylcholinesterase): 11000 nM

CCCCN1CC(=O)N2C(Cc3c([nH]c4ccccc34)C2c2ccc3c(c2)OCO3)C1=O (configuration not stated)
IC50 [1]: 3 nM

c1ccc2c(c1)[nH]c1c2ncc2[nH]c3ccccc3c21
Ki [3]: 1 nM
Ki [4]: 1 nM
Ki [5]: 1 nM
Ki [6]: 40 nM
Ki [7]: > 1000 nM

CCCCN1CC2Cc3c([nH]c4ccccc34)C(c3ccc4c(c3)OCO4)N2C1=O (configuration not stated)
IC50 [1]: 60 nM

O=C(O)c1cc2c(cn1)[nH]c1ccccc12
IC50 [2]: 31000 nM

CCc1c(C(=O)OC)nc(C)c2[nH]c3cc(OC)c(OC)cc3c12
Ki [3]: 6 nM
Ki [4]: 8 nM
Ki [5]: 4 nM
Ki [6]: 1 nM
Ki [7]: 130 nM

CCOC(=O)c1cc2c(cn1)[nH]c1ccccc12
Ki [3]: 1 nM

O=C1C2Cc3c([nH]c4ccccc34)C(c3ccc4c(c3)OCO4)N2C(=O)CN1Cc1ccccc1 (configuration not stated)
IC50 [1]: 3 nM

CCCOC(=O)c1cc2c(cn1)[nH]c1ccccc12
IC50 [2]: 1 nM

N#Cc1cc2c(cn1)[nH]c1ccccc12
IC50 [2]: 3 nM

COC(=O)[C@@H]1Cc2c([nH]c3ccccc23)[C@@H](c2ccc(Cl)cc2)N1C(=O)CCl
IC50 [1]: 2700 nM
